In publication PMC12040169 (PLOS Biology, 2025) one finds viability data, which are given here for 57 compounds.

The nature of the data set: in vitro. The settings on record: human, hela cells, % viability.

A word on the viability: it is a read-out of living cells in per cent, often relative to untreated cells. Consider `O=C(NC[C@H]1O[C@@H](CC(=O)N2CCN(c3ccccc3)CC2)[C@H](O)[C@@H]1O)c1ccco1` [CBK288919], for which the viability at 28.5 h, 10 µM amounted to 97.9%. Regarding `Cc1ccc(-c2csc(NC(=O)c3cccnc3)n2)cc1` [CBK072677], the viability at 28.5 h, 10 µM was 96.9%. For `O=C(O)C1(c2ccc(Br)cc2)CCCC1` [CBK287134], the viability at 28.5 h, 10 µM is 87.3%.

`CC1=NN(c2ccccc2)C(=O)C1C(=O)c1ccccc1` (stereo not drawn) [CBK083564]: the viability at 28.5 h, 10 µM is 99.3%. Still for that read-out and setting: the same measure for `O=C(NCc1c(F)cccc1F)C1(c2ccccc2)CCCC1` [CBK149527]: 91.7%. Same read-out and setting: the same measure for `Cc1ccc(CNc2oc(COc3ccc(Br)cc3)nc2C#N)cc1` [CBK074467]: 99.5%. In the case of `CN(C)CC(C)(C)CNC(=O)C1(c2ccccc2)CCCC1` [CBK149532], the viability at 28.5 h, 10 µM was 107%. For the compound `OCCN1CCN(c2nc(-c3cccnc3)cn3ccnc23)CC1` [CBK037887], the viability at 28.5 h, 10 µM is 99.3%. Turning to `CNC(=O)CCc1ccccc1NC(=O)NCCSc1ncn[nH]1` [CBK307253], the viability at 28.5 h, 10 µM worked out at 89.9%. Turning to `CCCNC(=O)c1ccc(C)c(NC(=O)N[C@@H](CO)c2ccccc2)c1` [CBK306609], the viability at 28.5 h, 10 µM stood at 96.2%. Take `COc1ccc(Nc2nc(N)nc(CSC(=S)N3CCN(C)CC3)n2)cc1` [CBK265232]: the viability at 28.5 h, 10 µM stood at 90.8%.

Turning to `COc1ccc(OC)c(-n2cnc3c2NC(=O)CC3c2ccccc2Cl)c1` (stereo not drawn) [CBK287983], the viability at 28.5 h, 10 µM was 91.1%. On the same count and under the same terms, the same measure for `COCCCN1C(=O)C(O)=C(C(=O)c2ccc(C)o2)C1c1ccc(OC)cc1` (stereo not drawn) [CBK264863]: 103%; for `CNC(=O)c1nc(NC)oc1C` [CBK059214]: 94.4%. On the same count and under the same terms, the same measure for `COc1ccc2cc(CN(CCNC(=O)OC(C)(C)C)C(=O)NC3CCCCC3)c(=O)[nH]c2c1` [CBK132074]: 101%; for `Cc1cc(CNC(=O)c2cc3ccccc3oc2=O)c2ccccc2n1` [CBK269834]: 94.2%. In the case of `CCOc1ccc(Cl)cc1CN(C)C(=O)NC(c1ncnn1C)C(C)C` (stereo not drawn) [CBK307110], the viability at 28.5 h, 10 µM was 80.5%. For `O=C(CCC1C(=O)NC(=O)NC1=O)Nc1cccc(-c2nc3ccccc3s2)c1` [CBK285844], the viability at 28.5 h, 10 µM (bulk resorufin, single well) was 105%.

For the compound `CS(=O)(=O)N1CC2(CCN(CCc3ccc(F)cc3)CC2)c2ccccc21` [CBK084103], the viability at 28.5 h, 10 µM is 93.3%. Still for that read-out and setting: the value for `Cc1cc(Cl)ccc1OC(C)C(=O)NCc1ccccn1` (stereo not drawn) [CBK265441] was 98.8%; that for `Fc1cccc(-c2nccnc2NCC2CC2)c1` [CBK036767] was 94.4%.

`Nc1nc(N)c([C@H]2C[C@@H](O)[C@@H](CO)O2)nc1Cl` [CBK201326]: the viability at 28.5 h, 10 µM was 103%. Same read-out and setting: the value for `COc1ccc(C(=O)Nc2ccccc2)cc1S(=O)(=O)Nc1cccnc1` [CBK266771] was 94.4%; that for `Cc1oc(C2CC2)cc1C(=O)N1CCn2c(nnc2C2CC2)C1` [CBK283687] was 94.9%.

With `Cc1ccc(C2CCCN2C(=O)C(C)Cn2cncn2)cc1C` (stereo not drawn) [CBK282213], the viability at 28.5 h, 10 µM was found to be 98.9%. On the same count and under the same terms, the value for `COc1cccc(CCNC2CC(=O)N(c3ccc(NC(C)=O)cc3)C2=O)c1` (stereo not drawn) [CBK265233] was 109%. The same measure, in the same setting: the same measure for `Cn1c(SCC(=O)c2ccc([N+](=O)[O-])cc2)nnc1-c1ccc(N)cc1` [CBK264843]: 97.9%; for `Oc1cccc(/C=N/c2ccc(Cc3ccc(/N=C/c4cccc(O)c4)cc3)cc2)c1` [CBK261230]: 103%; for `O=C(c1n[nH]c2ccccc12)N1CCc2ccccc21` [CBK200282]: 90.6%. For `CCCS(=O)(=O)Nc1nccnc1-c1ccc(Oc2ccccc2)cc1` [CBK050908], the viability at 28.5 h, 10 µM turned out to be 106%.

As to `O=C(c1cscn1)N1CCC2(CCCNC2)C1` (stereo not drawn) [CBK153230C], the viability at 28.5 h, 10 µM came to 97%.

For `Cc1nc2ccccc2c(C(=O)O)c1-c1ccccc1` [CBK274187], the viability at 28.5 h, 10 µM is 91.5%. The same measure, in the same setting: the same measure for `Nc1ncc(-c2ccc(C(=O)N3CCOCC3)cc2)cc1C(=O)Nc1ccc(C(F)(F)F)cc1` [CBK160204]: 90.6%; for `Cn1nc(-c2ccccc2)cc1[C@H]1CN2CC[C@H]1C[C@@H]2CNC(=O)NCc1ccccc1` [CBK289098]: 104%; for `COc1ccc(C)cc1CN(C)C(=O)c1cccc(NC(=O)C2CC2)c1` [CBK305414]: 98.5%. The same measure, in the same setting: the same measure for `CCOC(=O)c1sc(Sc2nnc(C(F)(F)F)n2C)c2c1CC(C)(C)CC2=O` [CBK005649]: 101%. Same read-out and setting: the value for `CN(Cc1ccco1)C(=O)NC1CCCc2c1cnn2CCO` (stereo not drawn) [CBK306290] was 108%. As to `CCOc1cccc(CNc2nn[nH]n2)c1OCc1ccc(C)cc1` [CBK288127], the viability at 28.5 h, 10 µM was 110%.

As to `C(=C\c1nccnc1OCCc1c[nH]c2ccccc12)/c1ccccc1` [CBK106872], the viability at 28.5 h, 10 µM is 91.7%. With `CC(NC(=O)N(Cc1ccc(CN)cc1)Cc1ccc2ccccc2c1)c1cccc2ccccc12` (stereo not drawn) [CBK046092C], the viability at 28.5 h, 10 µM was found to be 90%. Take `CCn1ncc(CN(C)C(=O)CCN2CCCCCC2=O)c1C` [CBK306718]: the viability at 28.5 h, 10 µM came out at 97.2%. Turning to `Fc1ccc(CSc2nnc(-c3ccccn3)[nH]2)cc1` [CBK270074], the viability at 28.5 h, 10 µM turned out to be 85.8%. Regarding `COc1ccc(C(=O)CCN(C)CC(=O)O)cc1` [CBK287227], the viability at 28.5 h, 10 µM was 89.7%.

For `CC(C)(C)c1csc(NC(=O)C2CC(=O)N(Cc3cccs3)C2)n1` (stereo not drawn) [CBK175547], the viability at 28.5 h, 10 µM was determined as 109%.

On to `CC(C)c1ccc(/C=C/C(=O)NCCc2c[nH]cn2)cc1` [CBK149629], for which the viability at 28.5 h, 10 µM is 101%.

For `CN(Cc1c(C2CCNCC2)[nH]c2ncccc12)C1CCCCC1` [CBK285079], the viability at 28.5 h, 10 µM stood at 93.3%. With `CC(C)(C)C1=CC2=NC3(CCCC3)[C@@H]3C[C@@H](O)[C@@H](O)[C@@H]3N2O1` [CBK303245], the viability at 28.5 h, 10 µM turned out to be 95.1%. Still for that read-out and setting: the value for `Cc1ccc(Nc2nc(N)nc(CSc3nnc(-c4ccncc4)o3)n2)cc1` [CBK266464] was 97.7%; that for `Cc1noc2nc(-c3ccccc3F)cc(C(=O)N3CCCC3c3nnc4ccccn34)c12` (stereo not drawn) [CBK296756] was 93.2%; that for `Cc1nnc(N2CCn3nc(C(O)Cc4ccccc4)cc3C2)s1` (stereo not drawn) [CBK307152] was 86%. Still for that read-out and setting: the value for `O=C(CNC(=O)c1ccccc1Cl)Nc1ccc(Br)cc1C(=O)c1ccccc1` [CBK087691] was 101%.

For the compound `O=C(O)c1cc(N/N=C/c2ccc(-c3ccc(Cl)c(C(=O)O)c3)o2)ccc1Cl` [CBK262483], the viability at 28.5 h, 10 µM came to 88.8%.

On to `O=C(NCCCC1CCOC1)c1cnn(-c2ccc(F)cc2)c1` (stereo not drawn) [CBK283288], for which the viability at 28.5 h, 10 µM was 92.5%. On to `CCOC(=O)c1nc(-c2ccccc2)sc1C(C)=O` [CBK067739], for which the viability at 28.5 h, 10 µM stood at 98.8%. Same read-out and setting: the value for `Cc1ncc(CO)c(/C=N/N=C/c2ccc(O)c(O)c2)c1O` [CBK265075] was 103%; that for `CCOC(=O)c1cnn(C2CCCN(Cc3cc[nH]n3)C2)c1` (stereo not drawn) [CBK305125] was 87.4%; that for `C#CCN(C)CC[C@@H]1CC[C@H](O)[C@@H](C(=O)N2CCOCC2)O1` [CBK288723] was 108%.
